Assay [1] has as its system HeLa. As to the kind of experiment: Cell cycle arrest in human HeLa cells assessed as accumulation at G2/M phase at 100 nM after 24 hrs by propidium iodide staining based flow cytometry. The format is functional.
The test system of another assay is PC-3. The experiment in a line: Antiproliferative activity against human PC3 cells assessed as inhibition of cell viability after 72 hrs by MTT assay. In kind it is functional, cell-based. To be noted: PC-3, 72 h.
Another assay has as its system HCT-116. As to the kind of experiment: Antiproliferative activity against human HCT116 cells assessed as inhibition of cell viability after 72 hrs by MTT assay. The format is functional, cell-based. To be noted: HCT-116, 72 h.
The next assay has as its system HEK293. The experiment in a line: Antiproliferative activity against HEK293 cells assessed as inhibition of cell viability after 72 hrs by MTT assay. The format is cell-based. To be noted: Homo sapiens, HEK293, 72 h.
Assay [2] relates to HeLa. As to the kind of experiment: Antiproliferative activity against human HeLa cells assessed as inhibition of cell viability after 72 hrs by MTT assay. In kind it is functional, cell-based.
Assay [3] deals with T1, Tubulin (Homo sapiens) (UniProt P68371+Q9H4B7+P0DPH7+P68366+Q13509+Q71U36+P04350+Q3ZCM7+P07437+P68363+Q9BQE3+Q6PEY2+Q13885+Q9BVA1+Q9BUF5). The experiment in a line: Inhibition of acetylated tubulin accumulation in human HeLa cells at 1000 nM after 6 hrs by Western blot analysis. The format is cell-based.
The target in assay [4] is T1, Tubulin (Homo sapiens). The experiment in a line: Inhibition of tubulin polymerization in human HeLa cells assessed as reduction of microtubule formation at 1000 nM after 6 hrs by DAPI staining-based immunofluorescence assay. The format is cell-based.
The target in assay [5] is T1, Tubulin (Homo sapiens). As to the kind of experiment: Inhibition of tubulin polymerization in human HeLa cells assessed as reduction of microtubule formation at 300 nM after 6 hrs by DAPI staining-based immunofluorescence assay. The format is cell-based.
The target in assay [6] is T1, Tubulin (Homo sapiens). As to the kind of experiment: Inhibition of acetylated tubulin accumulation in human HeLa cells at 300 nM after 6 hrs by Western blot analysis. The format is cell-based.
Assay [7] addresses T1, Tubulin (Homo sapiens). The experiment in a line: Inhibition of tubulin polymerization in human HeLa cells assessed as reduction of microtubule formation at 100 nM after 6 hrs by DAPI staining-based immunofluorescence assay. In kind it is cell-based.
The test system of assay [8] is HeLa. As to the kind of experiment: Cell cycle arrest in human HeLa cells assessed as accumulation at G2/M phase at 3 to 30 uM after 24 hrs by propidium iodide staining based flow cytometry. The format is functional.
In assay [9] the test system is HeLa. As to the kind of experiment: Cell cycle arrest in human HeLa cells assessed as accumulation at G2/M phase at 0.3 to 30 nM after 24 hrs by propidium iodide staining based flow cytometry. The format is functional.
Assay [10] has as its target Platelet-derived growth factor receptor beta (Homo sapiens) (UniProt P09619). The experiment in a line: Inhibition of N-terminal GST fusion protein human PDGFR-beta cytoplasmic domain expressed in baculovirus using CSKtide as substrate at 10 uM after 1 hr by off-chip Mobility Shift Assay.
The target in assay [11] is Epidermal growth factor receptor (Homo sapiens) (UniProt P00533). As to the kind of experiment: Inhibition of N-terminal GST fusion protein human EGFR cytoplasmic domain expressed in baculovirus using Srctide as substrate at 0.1 uM after 1 hr by off-chip Mobility Shift Assay.
In assay [12] the target is Vascular endothelial growth factor receptor 2 (Homo sapiens) (UniProt P35968). As to the kind of experiment: Inhibition of N-terminal GST fusion protein human KDR cytoplasmic domain expressed in baculovirus using CSKtide as substrate at 0.1 uM after 1 hr by off-chip Mobility Shift Assay.
For assay [13], the target named is T1, Tubulin (Homo sapiens). As to the kind of experiment: Inhibition of tubulin polymerization in human HeLa cells assessed as reduction of microtubule formation at 30 nM after 6 hrs by DAPI staining-based immunofluorescence assay. In kind it is cell-based.
For a further assay, the system named is Plasmodium falciparum. As to the kind of experiment: Antimalarial activity against Plasmodium falciparum 3D7 infected in human erythrocytes assessed as LDH activity at 100 nM after 72 hrs by plate reader analysis. In kind it is functional, organism-based.
For a further assay, the target named is Tubulin (Sus scrofa) (UniProt P02554+P02550). The experiment in a line: Inhibition of porcine tubulin polymerization measured every min for 1 hr by fluorescence analysis. The format is protein assay.
Assay [14] addresses T2, Cyclin-dependent kinase 2/cyclin E1 (Homo sapiens) (UniProt P24864+P24941). As to the kind of experiment: Inhibition of N-terminal GST-tagged human full length CDK2/Cyclin E1 expressed in baculovirus using histone H1 as substrate at 10 uM after 1 hr by off-chip Mobility Shift Assay.
Assay [15] has as its target T3, Serine/threonine-protein kinase Chk1 (Homo sapiens) (UniProt O14757).
T3 sequence (whole entry): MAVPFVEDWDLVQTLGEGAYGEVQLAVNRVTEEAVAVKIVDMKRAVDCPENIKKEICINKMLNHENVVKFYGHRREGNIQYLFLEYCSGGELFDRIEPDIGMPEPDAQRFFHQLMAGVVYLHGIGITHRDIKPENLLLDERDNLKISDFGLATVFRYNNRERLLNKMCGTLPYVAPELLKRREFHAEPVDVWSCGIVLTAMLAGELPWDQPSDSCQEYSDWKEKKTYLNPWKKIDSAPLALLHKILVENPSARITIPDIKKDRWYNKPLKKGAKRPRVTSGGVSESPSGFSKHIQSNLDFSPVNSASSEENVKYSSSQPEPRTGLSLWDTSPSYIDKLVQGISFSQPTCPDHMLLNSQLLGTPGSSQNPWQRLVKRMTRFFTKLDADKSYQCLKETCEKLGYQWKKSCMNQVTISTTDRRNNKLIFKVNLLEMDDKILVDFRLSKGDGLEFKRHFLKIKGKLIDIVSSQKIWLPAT
As to the kind of experiment: Inhibition of human full length N-terminal GST fusion protein CHK1 expressed in baculovirus using CHKtide as substrate at 0.1 uM after 1 hr by off-chip Mobility Shift Assay.

Another assay has as its system Escherichia coli. The experiment in a line: Antimicrobial activity against Escherichia coli HO141 at 100 nM after 24 hrs by standard microdilution method. The format is functional, organism-based.
Assay [16] has as its target T1, Tubulin (Homo sapiens). The experiment in a line: Inhibition of acetylated tubulin accumulation in human HeLa cells at 1 to 100 nM after 6 hrs by Western blot analysis. The format is cell-based.
The next assay relates to Staphylococcus aureus. As to the kind of experiment: Antimicrobial activity against Staphylococcus aureus 209 at 100 nM after 24 hrs by standard microdilution method. In kind it is functional, organism-based.
In assay [17] the target is T2, Cyclin-dependent kinase 2/cyclin E1 (Homo sapiens). The experiment in a line: Inhibition of N-terminal GST-tagged human full length CDK2/Cyclin E1 expressed in baculovirus using histone H1 as substrate at 0.1 uM after 1 hr by off-chip Mobility Shift Assay.
A further assay deals with Pyricularia oryzae. The experiment in a line: Antimicrobial activity against Magnaporthe oryzae Kita-1 at 100 nM after 48 hrs by standard microdilution method. The format is functional, organism-based.
In a further assay the test system is Candida albicans. The experiment in a line: Antimicrobial activity against Candida albicans JCM1542 at 100 nM after 24 hrs by standard microdilution method. The format is functional, organism-based.
Assay [18] addresses CDK4/Cyclin D3 (Homo sapiens) (UniProt P11802+P30281). As to the kind of experiment: Inhibition of human full length N-terminal GST-fusion protein CDK4/GST-tagged Cyclin D3 expressed in baculovirus using DYRKtide-F as substrate at 0.1 uM after 1 hr by off-chip Mobility Shift Assay.
For assay [19], the target named is Vascular endothelial growth factor receptor 2 (Homo sapiens) (UniProt P35968). As to the kind of experiment: Inhibition of N-terminal GST fusion protein human KDR cytoplasmic domain expressed in baculovirus using CSKtide as substrate at 10 uM after 1 hr by off-chip Mobility Shift Assay.
In a further assay the test system is Aspergillus fumigatus. As to the kind of experiment: Antimicrobial activity against Aspergillus fumigatus Af293 at 100 nM after 48 hrs by standard microdilution method. The format is functional.
For assay [20], the target named is Platelet-derived growth factor receptor beta (Homo sapiens) (UniProt P09619). The experiment in a line: Inhibition of N-terminal GST fusion protein human PDGFR-beta cytoplasmic domain expressed in baculovirus using CSKtide as substrate at 0.1 uM after 1 hr by off-chip Mobility Shift Assay.

Activity calls are given as the source filed them. No cut-off for these calls is given here.

Chain of Vascular endothelial growth factor receptor 2 (Homo sapiens) (P35968 whole entry, the tested form may be a part): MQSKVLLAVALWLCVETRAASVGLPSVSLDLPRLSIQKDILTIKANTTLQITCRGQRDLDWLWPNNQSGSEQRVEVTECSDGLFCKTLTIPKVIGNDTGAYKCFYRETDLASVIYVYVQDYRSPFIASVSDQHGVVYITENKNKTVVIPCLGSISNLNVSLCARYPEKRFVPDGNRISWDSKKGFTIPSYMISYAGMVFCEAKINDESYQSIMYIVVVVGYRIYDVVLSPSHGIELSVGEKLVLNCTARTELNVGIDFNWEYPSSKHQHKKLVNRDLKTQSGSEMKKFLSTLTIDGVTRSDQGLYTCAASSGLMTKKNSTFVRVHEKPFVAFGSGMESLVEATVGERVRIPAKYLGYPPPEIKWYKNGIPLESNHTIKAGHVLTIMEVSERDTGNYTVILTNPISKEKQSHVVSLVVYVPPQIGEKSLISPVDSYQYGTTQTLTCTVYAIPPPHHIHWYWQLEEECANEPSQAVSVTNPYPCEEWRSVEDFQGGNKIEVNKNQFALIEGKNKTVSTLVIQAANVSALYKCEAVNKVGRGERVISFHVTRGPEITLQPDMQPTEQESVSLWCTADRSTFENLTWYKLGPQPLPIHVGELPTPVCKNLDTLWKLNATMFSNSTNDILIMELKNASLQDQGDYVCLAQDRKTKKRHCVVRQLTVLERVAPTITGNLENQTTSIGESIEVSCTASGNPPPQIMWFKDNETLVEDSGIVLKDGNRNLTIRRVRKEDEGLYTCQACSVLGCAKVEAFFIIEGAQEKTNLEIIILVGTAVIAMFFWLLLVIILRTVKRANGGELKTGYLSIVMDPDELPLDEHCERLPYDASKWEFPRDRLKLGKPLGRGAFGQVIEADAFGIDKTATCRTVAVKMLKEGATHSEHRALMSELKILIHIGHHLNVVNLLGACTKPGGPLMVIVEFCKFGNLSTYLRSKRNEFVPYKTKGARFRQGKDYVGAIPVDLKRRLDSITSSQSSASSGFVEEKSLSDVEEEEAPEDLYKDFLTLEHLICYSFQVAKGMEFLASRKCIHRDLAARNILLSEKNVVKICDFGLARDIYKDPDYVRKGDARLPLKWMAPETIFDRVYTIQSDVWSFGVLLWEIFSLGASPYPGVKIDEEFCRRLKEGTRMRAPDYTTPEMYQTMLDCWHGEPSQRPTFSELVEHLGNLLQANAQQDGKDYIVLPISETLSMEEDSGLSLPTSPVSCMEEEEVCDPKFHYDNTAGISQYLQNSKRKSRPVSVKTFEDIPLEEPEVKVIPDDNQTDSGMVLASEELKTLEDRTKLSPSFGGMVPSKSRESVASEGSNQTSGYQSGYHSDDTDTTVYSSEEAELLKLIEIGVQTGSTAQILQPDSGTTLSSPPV
Chain of Platelet-derived growth factor receptor beta (Homo sapiens) (P09619 whole entry, the tested form may be a part): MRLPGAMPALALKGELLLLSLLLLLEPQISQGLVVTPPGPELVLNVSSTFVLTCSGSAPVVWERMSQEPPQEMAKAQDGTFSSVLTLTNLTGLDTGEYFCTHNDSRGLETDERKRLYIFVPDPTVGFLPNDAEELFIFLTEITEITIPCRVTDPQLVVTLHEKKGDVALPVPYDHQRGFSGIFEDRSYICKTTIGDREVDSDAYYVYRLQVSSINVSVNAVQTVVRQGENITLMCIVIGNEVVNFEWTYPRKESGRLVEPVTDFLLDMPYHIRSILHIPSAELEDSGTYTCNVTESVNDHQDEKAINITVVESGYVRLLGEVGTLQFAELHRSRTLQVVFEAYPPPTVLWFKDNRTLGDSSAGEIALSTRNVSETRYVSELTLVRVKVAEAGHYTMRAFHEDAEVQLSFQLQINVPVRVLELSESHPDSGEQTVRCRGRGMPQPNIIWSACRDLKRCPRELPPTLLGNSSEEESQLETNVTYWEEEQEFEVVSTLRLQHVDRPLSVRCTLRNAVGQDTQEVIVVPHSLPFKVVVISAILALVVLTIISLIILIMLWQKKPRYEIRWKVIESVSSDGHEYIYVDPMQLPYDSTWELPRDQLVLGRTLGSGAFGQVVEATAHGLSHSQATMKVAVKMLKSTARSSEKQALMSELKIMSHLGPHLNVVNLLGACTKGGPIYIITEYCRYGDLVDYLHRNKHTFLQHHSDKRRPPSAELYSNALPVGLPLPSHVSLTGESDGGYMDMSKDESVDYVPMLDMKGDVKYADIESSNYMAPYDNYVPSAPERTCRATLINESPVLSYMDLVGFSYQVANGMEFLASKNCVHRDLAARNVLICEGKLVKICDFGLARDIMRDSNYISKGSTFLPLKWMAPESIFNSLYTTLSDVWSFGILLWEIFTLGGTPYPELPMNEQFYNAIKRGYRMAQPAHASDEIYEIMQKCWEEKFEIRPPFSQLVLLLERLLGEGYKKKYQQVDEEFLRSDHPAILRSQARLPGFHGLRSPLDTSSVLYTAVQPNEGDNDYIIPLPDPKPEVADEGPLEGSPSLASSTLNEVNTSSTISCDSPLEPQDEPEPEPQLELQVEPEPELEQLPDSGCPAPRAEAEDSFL
Chain of Tubulin (Sus scrofa) (P02550 whole entry, looked up): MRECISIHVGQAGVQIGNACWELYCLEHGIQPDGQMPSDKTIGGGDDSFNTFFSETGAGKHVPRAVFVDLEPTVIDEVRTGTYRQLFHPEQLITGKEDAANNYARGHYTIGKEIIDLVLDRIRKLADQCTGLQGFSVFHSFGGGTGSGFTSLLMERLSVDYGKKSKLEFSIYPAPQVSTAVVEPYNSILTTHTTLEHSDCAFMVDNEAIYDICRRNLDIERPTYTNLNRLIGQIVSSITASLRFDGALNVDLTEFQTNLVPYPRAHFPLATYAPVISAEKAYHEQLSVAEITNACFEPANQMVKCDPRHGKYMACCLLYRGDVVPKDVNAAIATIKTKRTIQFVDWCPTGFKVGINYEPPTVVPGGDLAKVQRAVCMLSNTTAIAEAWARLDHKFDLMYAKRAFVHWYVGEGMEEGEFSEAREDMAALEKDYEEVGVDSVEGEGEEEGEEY
Chain of Tubulin (Sus scrofa) (P02554 whole entry, looked up): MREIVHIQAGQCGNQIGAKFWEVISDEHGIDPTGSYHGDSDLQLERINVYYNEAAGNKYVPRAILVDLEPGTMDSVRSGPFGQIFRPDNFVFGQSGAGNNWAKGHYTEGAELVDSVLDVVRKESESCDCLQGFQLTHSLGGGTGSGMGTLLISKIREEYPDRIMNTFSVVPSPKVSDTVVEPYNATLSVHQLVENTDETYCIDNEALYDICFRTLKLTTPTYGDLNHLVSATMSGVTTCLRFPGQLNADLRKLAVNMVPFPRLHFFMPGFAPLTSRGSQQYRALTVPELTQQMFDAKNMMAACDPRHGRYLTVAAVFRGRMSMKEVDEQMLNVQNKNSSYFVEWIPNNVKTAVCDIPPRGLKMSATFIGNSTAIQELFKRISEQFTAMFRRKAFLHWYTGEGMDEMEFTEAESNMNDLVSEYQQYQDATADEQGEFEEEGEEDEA
Chain of Epidermal growth factor receptor (Homo sapiens) (P00533 whole entry, the tested form may be a part): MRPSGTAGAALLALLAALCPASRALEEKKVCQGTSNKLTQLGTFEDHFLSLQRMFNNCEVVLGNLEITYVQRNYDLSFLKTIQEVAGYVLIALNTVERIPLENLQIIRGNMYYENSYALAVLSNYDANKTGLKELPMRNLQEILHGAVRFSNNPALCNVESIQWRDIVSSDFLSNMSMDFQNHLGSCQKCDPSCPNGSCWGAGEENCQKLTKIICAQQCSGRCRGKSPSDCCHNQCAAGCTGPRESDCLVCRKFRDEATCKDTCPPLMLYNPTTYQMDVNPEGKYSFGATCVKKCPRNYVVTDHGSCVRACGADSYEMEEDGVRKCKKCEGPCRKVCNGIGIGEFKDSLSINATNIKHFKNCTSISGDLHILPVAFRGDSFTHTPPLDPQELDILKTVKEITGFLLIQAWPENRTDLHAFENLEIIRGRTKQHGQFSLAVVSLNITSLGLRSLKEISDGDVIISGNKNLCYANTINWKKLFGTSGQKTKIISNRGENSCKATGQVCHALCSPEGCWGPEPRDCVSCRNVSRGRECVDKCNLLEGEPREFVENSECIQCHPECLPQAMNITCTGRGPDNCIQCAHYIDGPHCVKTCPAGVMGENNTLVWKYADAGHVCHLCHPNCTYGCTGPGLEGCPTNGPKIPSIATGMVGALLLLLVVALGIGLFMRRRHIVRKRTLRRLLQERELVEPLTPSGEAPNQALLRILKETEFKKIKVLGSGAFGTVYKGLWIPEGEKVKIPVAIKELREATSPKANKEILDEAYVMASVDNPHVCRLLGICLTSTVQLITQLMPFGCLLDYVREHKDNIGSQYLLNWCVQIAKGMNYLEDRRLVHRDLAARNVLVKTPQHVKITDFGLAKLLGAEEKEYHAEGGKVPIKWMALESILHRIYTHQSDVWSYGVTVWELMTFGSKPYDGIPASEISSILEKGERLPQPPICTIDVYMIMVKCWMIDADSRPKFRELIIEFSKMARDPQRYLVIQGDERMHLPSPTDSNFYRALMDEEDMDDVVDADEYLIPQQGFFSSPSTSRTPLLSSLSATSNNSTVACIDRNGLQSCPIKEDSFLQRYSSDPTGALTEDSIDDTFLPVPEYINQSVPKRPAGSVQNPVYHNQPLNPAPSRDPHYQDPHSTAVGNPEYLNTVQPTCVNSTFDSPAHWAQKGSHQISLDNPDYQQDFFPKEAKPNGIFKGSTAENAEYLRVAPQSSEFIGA

Turning to `COc1cc2c(c(OC)c1OC)-c1ccc(OC)c(=O)cc1[C@@H](NC(C)=O)CC2`, the outcome with HeLa [1] was Active.

Take `COc1ccc2c(c1)Cc1c(Nc3ccccc3OC)n[nH]c1-2`: the IC50 in the assay with PC-3 is more than 100 nM; in the assay on HCT-116, 86.2 nM; in the assay on HEK293, more than 100 nM; in the assay with HeLa [2], 32 nM.

For the compound `CCOc1ccc2c(c1)Cc1c(Nc3ccccc3)n[nH]c1-2`, the IC50 with PC-3 stood at 60.2 nM; with HCT-116, 56.8 nM; with HEK293 it was 55.6 nM; with HeLa [2], 20.4 nM.

`COc1cccc(Nc2n[nH]c3c2Cc2ccccc2-3)c1`: the IC50 with PC-3, with HCT-116, with HEK293 and in the assay with HeLa [2] was more than 100 nM in each case. The inhibition result at Tubulin (Homo sapiens) [3] is “inactive”.

`COc1ccc2c(c1)Cc1c-2n[nH]c1Nc1ccccc1`: the inhibition entry at Tubulin (Homo sapiens) [4] and at Tubulin (Homo sapiens) [3] was “inactive” throughout. In addition, the IC50 in the assay on PC-3 came out at 35.6 nM; with HCT-116 it was 26.6 nM; in the assay with HEK293 it was 53.6 nM; in the assay on HeLa [2], 8.9 nM.

Take `COc1ccc2c(c1)Cc1c(Nc3cccc(O)c3)n[nH]c1-2`: the IC50 in the assay on PC-3 was 8.6 nM; in the assay on HCT-116, 10.9 nM; in the assay on HEK293, more than 100 nM; in the assay on HeLa [2], 7.1 nM.

In the case of `COc1ccc2c(c1)Cc1c(Nc3ccccc3O)n[nH]c1-2`, the IC50 with PC-3, in the assay with HCT-116, in the assay on HEK293 and in the assay with HeLa [2] was more than 100 nM throughout.

For `COc1cc(Nc2n[nH]c3c2Cc2cc(OC)ccc2-3)cc(OC)c1`, the IC50 stood at 7 nM with PC-3, 7.4 nM in the assay on HCT-116, 4.6 nM in the assay on HEK293 and 3.2 nM in the assay on HeLa [2].

For the compound `COc1ccc(Nc2n[nH]c3c2Cc2cc(OC)ccc2-3)cc1`, the IC50 in the assay on PC-3, with HCT-116, in the assay with HEK293 and in the assay with HeLa [2] was more than 100 nM in each case.

Take `COc1ccc2c(c1)Cc1c(Nc3cccc(OCC(C)C)c3)n[nH]c1-2`: the IC50 is 50.5 nM with PC-3, 56.6 nM with HCT-116, 25.5 nM in the assay on HEK293 and 19.9 nM in the assay on HeLa [2]. The inhibition entry on Tubulin (Homo sapiens) [5] and on Tubulin (Homo sapiens) [6] was “Active” throughout.

On to `COc1ccc2c(c1)Cc1c(Nc3cccc(C(=O)O)c3)n[nH]c1-2`, for which the IC50 in the assay on PC-3, in the assay on HCT-116, in the assay on HEK293 and with HeLa [2] was more than 100 nM each time.

Regarding `Oc1ccc2c(c1)Cc1c(Nc3ccccc3)n[nH]c1-2`, the IC50 with PC-3, in the assay with HCT-116, with HEK293 and with HeLa [2] was more than 100 nM throughout.

Turning to `COc1cccc(Nc2n[nH]c3c2Cc2cc(OC)ccc2-3)c1`, the IC50 in the assay with PC-3 was determined as 4.7 nM; in the assay with HCT-116, 6.53 nM; in the assay on HEK293, 8.8 nM; in the assay on HeLa [2], 2.8 nM.

`CC(=O)O[C@H]1C(=O)[C@@]2(C)[C@H]([C@H](OC(=O)c3ccccc3)[C@]3(O)C[C@H](OC(=O)[C@H](O)[C@@H](NC(=O)c4ccccc4)c4ccccc4)C(C)=C1C3(C)C)[C@]1(OC(C)=O)CO[C@@H]1C[C@@H]2O`: the inhibition entry on Tubulin (Homo sapiens) [7] is “inactive”.

For the compound `COc1ccc2c(c1)Cc1c(Nc3ccc(OC)c(OC)c3)n[nH]c1-2`, the IC50 in the assay with PC-3 was 90.9 nM; in the assay on HCT-116 it was 86.3 nM; in the assay with HEK293, more than 100 nM; in the assay on HeLa [2], more than 100 nM.

Turning to `c1ccc(Nc2n[nH]c3c2Cc2ccccc2-3)cc1`, the IC50 in the assay on PC-3, with HCT-116, in the assay with HEK293 and in the assay with HeLa [2] was more than 100 nM each time. The result in the assay on HeLa [8] and in the assay on HeLa [9] was inactive.

For the compound `COC(=O)c1cccc(Nc2n[nH]c3c2Cc2cc(OC)ccc2-3)c1`, the inhibition in [10] was more than 82%; on Tubulin (Sus scrofa), “Dose-dependent effect”; in assay [14] it was more than 82%; in assay [19], more than 82%. Further, the inhibition entry in assay [11], in assay [12], in assay [15], in [17], in assay [18] and in [20] was “inactive” each time. The IC50 in the assay with PC-3 worked out at 2.64 nM; in the assay with HCT-116, 2.7 nM; in the assay with HEK293, 2.2 nM; in the assay with HeLa [2], 2.47 nM. The inhibition entry on Tubulin (Homo sapiens) [13] and at Tubulin (Homo sapiens) [16] was “Active” throughout. In addition, in the assay with HeLa [9], the outcome was Active. Also, the outcome in the assay on Plasmodium falciparum, in the assay with Escherichia coli, with Staphylococcus aureus, with Pyricularia oryzae, in the assay on Candida albicans and in the assay on Aspergillus fumigatus was inactive.

The values are drawn from ChEMBL document CHEMBL3576861, “Methyl 3-((6-methoxy-1,4-dihydroindeno[1,2-c]pyrazol-3-yl)amino)benzoate (GN39482) as a tubulin polymerization inhibitor identified by MorphoBase and ChemProteoBase profiling methods” (J Med Chem, 2015).
